Article PMC7247319, “The mitochondria-targeted peptide SS-31 binds lipid bilayers and modulates surface electrostatics as a key component of its mechanism of action” (The Journal of Biological Chemistry, 2020)
Where a SMILES comes first, the peptide text is derived from it. [ ]: non-standard residue; d: D form. Dmt = Cc1cc(O)cc(C)c1C[C@H](N)C(=O)O

How the values were obtained:
[1] = test system: isolated mitochondria; assay: TMRM time course of ΔΨm generation in mitochondria with ETH-129 and calcium; design: species or system S. cerevisiae
Description: Figure 7. SS peptide effects on Ca^2+-membrane interactions and mitochondrial cation stress. A, profiles of surface potential decay (top) and ion distribution (bottom) based on GCS theory in the presence or absence of SS-31 (see supporting Results H for model description). B, effect of SS peptides on Ca^2+ accumulation at model membrane interfaces. Time course measurements of CG-5N emission were performed in solutions with LUVs (20 mol % TOCL in host POPC background, [lipid]^eff = 100 μM) prebound with SS peptide at the indicated concentration followed by titration of CaCl2 in increments of 1 nmol at 20-s intervals starting at t = 60 s. […] Spectral deconvolution yielded the indicated components (see Fig. S19, A and B), which were used to quantify the area ratios of L2/iso in F (values shown are means ± S.D. (error bars) (n = 3). G, respirometry analysis. Mitochondria (1 mg ml^−1) were treated in the absence or presence of SS-31 (54.4 μM) or CaCl2 (1 mM) as indicated and measured for state 2 respiration (n = 10–12 each).
Second, we measured the effects of SS peptides on mitochondrial Ca^2+ flux. […] In these experiments, we monitored the relative ΔΨm using the potentiometric probe tetramethylrhodamine methyl ester (TMRM) (the emission of which is inversely related to membrane potential; Fig. S17E) and, in parallel, monitored the external [Ca^2+] using CG-5N (Fig. 7C and Fig. S18A). […]

[2] = test system: isolated mitochondria; assay: 31P ssNMR of mitochondrial membrane integrity under calcium stress; design: species or system S. cerevisiae
Description: Figure 7. SS peptide effects on Ca^2+-membrane interactions and mitochondrial cation stress. A, profiles of surface potential decay (top) and ion distribution (bottom) based on GCS theory in the presence or absence of SS-31 (see supporting Results H for model description). B, effect of SS peptides on Ca^2+ accumulation at model membrane interfaces. Time course measurements of CG-5N emission were performed in solutions with LUVs (20 mol % TOCL in host POPC background, [lipid]^eff = 100 μM) prebound with SS peptide at the indicated concentration followed by titration of CaCl2 in increments of 1 nmol at 20-s intervals starting at t = 60 s. C and D, effect of SS peptides on mitochondrial Ca^2+ uptake. […] Spectral deconvolution yielded the indicated components (see Fig. S19, A and B), which were used to quantify the area ratios of L2/iso in F (values shown are means ± S.D. (error bars) (n = 3). G, respirometry analysis. Mitochondria (1 mg ml^−1) were treated in the absence or presence of SS-31 (54.4 μM) or CaCl2 (1 mM) as indicated and measured for state 2 respiration (n = 10–12 each).
Finally, we measured the effects of SS peptides on mitochondrial calcium stress that may occur independently of Ca^2+ uptake into the matrix. […] To corroborate these findings, we measured mitochondrial oxygen consumption rates under similar conditions of SS peptide treatment and calcium stress. […]

Cc1cc(O)cc(C)c1C[C@H](NC(=O)[C@H](N)CCCNC(=N)N)C(=O)N[C@@H](CCCCN)C(=O)N[C@@H](Cc1ccccc1)C(N)=O [SS-31, D-Arg-2′6′-dimethyl-Tyr-Lys-Phe-NH2] (H-[dR][Dmt]KF-NH2)
dose response of effect on Ca2+-dependent ΔΨm generation delay ([1]; 25 μM CaCl2, 1 mM NADH, n = 3): dose-dependent and saturable | effect on temporal delay in mitochondrial energization (ΔΨm generation) with Ca2+ ([1]; ETH-129, NADH, increasing [Ca2+], TMRM): reduced the extent of this temporal delay | effect on NMR-detected membrane degradation caused by high calcium load ([2]; acute treatment 8.5 nmol of peptide/mg of mitochondrial protein (0.6 mM, 70 mg ml^−1), up to 5 mM CaCl2, 4 °C): reduced NMR-detected membrane degradation | effect on L2 peak (lamellar phospholipid bilayers), L2/iso area ratio ([2]; spectral deconvolution, 5 mM CaCl2, n = 3): significant preservation of the L2 peak
